Measurements taken from patent US9974784B2, “Inhibitors of activin-like receptor kinases” (The Texas A & M University System, priority 2015, dated 2018).

Experiments:
BMP signaling = settings: pharmacological inhibition of BMP signaling; cited from earlier work
ALK2 [1] = biological target: T1, ALK2 (Homo sapiens, UniProt Q04771); assay: SDS and native polyacrylamide gel electrophoresis analysis of ALK2 destabilization; settings: SDS-PAGE / gel electrophoresis, FIG. 8, increasing concentrations of test compound vs control compound
T1 sequence (Q04771 21-509): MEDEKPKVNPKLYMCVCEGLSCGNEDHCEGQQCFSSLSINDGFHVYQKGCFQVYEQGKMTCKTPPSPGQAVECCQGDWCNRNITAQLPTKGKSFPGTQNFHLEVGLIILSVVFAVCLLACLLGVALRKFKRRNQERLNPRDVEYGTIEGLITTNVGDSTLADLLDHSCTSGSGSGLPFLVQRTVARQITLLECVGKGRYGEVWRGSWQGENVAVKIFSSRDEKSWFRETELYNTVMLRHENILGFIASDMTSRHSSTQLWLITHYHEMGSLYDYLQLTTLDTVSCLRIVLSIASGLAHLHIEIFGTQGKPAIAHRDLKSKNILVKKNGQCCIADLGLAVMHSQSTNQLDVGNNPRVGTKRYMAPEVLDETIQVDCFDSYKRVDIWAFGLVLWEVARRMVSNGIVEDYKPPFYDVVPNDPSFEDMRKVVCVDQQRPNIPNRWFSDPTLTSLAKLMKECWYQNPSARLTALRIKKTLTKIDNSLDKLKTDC
Experimental: Destabilizing effects of a compound identified by a method of the claimed invention, were observed by SDS and native polyacrylamide gel electrophoresis analyses (FIG. 8), and were confirmed by monitoring protein unfolding with a hydrophobic fluoroprobe (SYPRO orange) in 96-well plate format with a quantitative PCR instrument (Thermofluor assay). The allosteric inhibitor shifted the melting temperature of Dorsomorphin-stabilized ALK2 from approximately 55° C. down to 35° C. in a concentration dependent manner that correlated with concentration dependent inhibition of ALK2 kinase activity.
The comparative stabilities of the kinase protein were tested at varying pH levels in the presence of compounds identified by the methods of the claimed invention. […] Thermofluor assays provide independent confirmation of the effect of decreasing pH on the stability (FIG. 10) and sensitivity to an allosteric destabilizer (FIG. 11) of the kinase protein. […] Hypoxic conditions typically occur in tissues that are faced with traumas such as those caused by surgery or injury.

ALK2 [2] = biological target: T1, ALK2; assay: screening assay for compounds that bind an allosteric site of ALK2 and destabilize the protein
Text: Screening assays were set up to identify compounds that were capable of binding to a specific location in ALK2. This location was a ring-shaped pocket that contains a single centrally located sidechain, that of a histidine in ALK1 and ALK2, and an aspartate in the other five receptor kinases of the family. Numerous compounds were docked in poses that wrap the scaffolds around the central “island” residue, with terminal groups oriented in a head-to-tail fashion. Covalent linkage of the juxtaposed groups to form macrocyclic compounds is likely feasible in many cases. Through reduction in the entropic cost of binding due to constraint of rotatable bonds, as well as other properties, macrocycles have become an attractive scaffold for medicinal chemists in modern drug discovery.
According to a further embodiment of the invention, a screening assay is carried out to identify compounds that bind to an allosteric site of ALK2 and cause destabilization of the protein.

| Structure (SMILES) | destabilization of ALK-2 (ALK2 [2]) | also measured |
| --- | --- | --- |
| c1ccc2c(-c3cnn4cc(-c5ccc(N6CCNCC6)cc5)cnc34)ccnc2c1 [LDN-193189] |  | effect on muscle (BMP signaling): leads to muscle wasting or cachexia |
| Cc1onc(-c2ccccc2)c1C(=O)NCC1Cc2cccc(-c3ccccn3)c2O1 (centres unmarked) [compound 8, 5-methyl-3-phenyl-N-{[7-(2-pyridinyl)-2,3-dihydro-1-benzofuran-2-yl]methyl}-4-isoxazolecarboxamide] |  | destabilization of ALK2 receptor kinase (ALK2 [1]): destabilization of ALK2 receptor kinase |
| Cc1cc(NS(=O)(=O)c2ccc3c(c2)C2C4CCC(C4)C2C(c2cccc(C(=O)O)c2)N3)no1 (centres unmarked) [compound 14, 3-{2-[(5-methyl-1,2-oxazol-3-yl)sulfamoyl]-5,6,6a,7,8,9,10,10a-octahydro-7,10-methanophenanthridin-6-yl}benzoic acid] | cause destabilization of ALK-2 |  |
| Cc1nc(-c2cccc(S(=O)(=O)N3CCC(C(=O)NCCc4nc5ccccc5[nH]4)CC3)c2)no1 [compound 17, N-[2-(1H-1,3-benzodiazol-2-yl)ethyl]-1-[3-(5-methyl-1,2,4-oxadiazol-3-yl)benzenesulfonyl]piperidine-4-carboxamide] | cause destabilization of ALK-2 |  |
| Cc1nc(-c2cccc(S(=O)(=O)N3CCC(C(=O)Nc4cccc5c4CCCC5)CC3)c2)no1 [compound 19, 1-[3-(5-methyl-1,2,4-oxadiazol-3-yl)benzenesulfonyl]-N-(5,6,7,8-tetrahydronaphthalen-1-yl)piperidine-4-carboxamide] | cause destabilization of ALK-2 |  |
| Cc1nc(-c2cccc(N3CC(C(=O)N4CCN(Cc5ccc6c(c5)OCO6)CC4)CC3=O)c2)no1 (centres unmarked) [compound 20, 4-[4-(1,3-benzodioxol-5-ylmethyl)piperazine-1-carbonyl]-1-[3-(5-methyl-1,2,4-oxadiazol-3-yl)phenyl]pyrrolidin-2-one] | cause destabilization of ALK-2 |  |
| Cc1nc(NS(=O)(=O)c2ccc3c(c2)C2C4CCC(C4)C2C(c2cccc(C(=O)O)c2)N3)oc1C (centres unmarked) [compound 24, 3-{2-[(4,5-dimethyl-1,3-oxazol-2-yl)sulfamoyl]-5,6,6a,7,8,9,10,10a-octahydro-7,10-methanophenanthridin-6-yl}benzoic acid] | cause destabilization of ALK-2 |  |
| Cc1cccc(-c2cccc(NC(=O)C3CCCN(C(=O)c4ccnc(N)c4)C3)c2)c1 (centres unmarked) [compound 28, 1-(2-aminoisonicotinoyl)-N-(3′-methyl-3-biphenylyl)-3-piperidinecarboxamide] | cause destabilization of ALK-2 |  |
